Assay results taken from patent US10239873B2, “7-azaindole or 4,7-diazaindole derivatives as IKKϵ epsilon and TBK1 inhibitor and pharmaceutical composition comprising same” (GREEN CROSS CORPORATION, priority 2015, dated 2019).

How the values were obtained:
TBK1 = target: T1, TBK1 (Homo sapiens, UniProt Q9UHD2); assay: ADP-Glo Kinase Assay, inhibition activity on TBK1; format: biochemical
T1 construct: purchased Promega (Invitrogen is also named in the same bracket) V4158; PR8031B; V3991 (not assigned to the two kinases)
T1 sequence (Q9UHD2 1-729): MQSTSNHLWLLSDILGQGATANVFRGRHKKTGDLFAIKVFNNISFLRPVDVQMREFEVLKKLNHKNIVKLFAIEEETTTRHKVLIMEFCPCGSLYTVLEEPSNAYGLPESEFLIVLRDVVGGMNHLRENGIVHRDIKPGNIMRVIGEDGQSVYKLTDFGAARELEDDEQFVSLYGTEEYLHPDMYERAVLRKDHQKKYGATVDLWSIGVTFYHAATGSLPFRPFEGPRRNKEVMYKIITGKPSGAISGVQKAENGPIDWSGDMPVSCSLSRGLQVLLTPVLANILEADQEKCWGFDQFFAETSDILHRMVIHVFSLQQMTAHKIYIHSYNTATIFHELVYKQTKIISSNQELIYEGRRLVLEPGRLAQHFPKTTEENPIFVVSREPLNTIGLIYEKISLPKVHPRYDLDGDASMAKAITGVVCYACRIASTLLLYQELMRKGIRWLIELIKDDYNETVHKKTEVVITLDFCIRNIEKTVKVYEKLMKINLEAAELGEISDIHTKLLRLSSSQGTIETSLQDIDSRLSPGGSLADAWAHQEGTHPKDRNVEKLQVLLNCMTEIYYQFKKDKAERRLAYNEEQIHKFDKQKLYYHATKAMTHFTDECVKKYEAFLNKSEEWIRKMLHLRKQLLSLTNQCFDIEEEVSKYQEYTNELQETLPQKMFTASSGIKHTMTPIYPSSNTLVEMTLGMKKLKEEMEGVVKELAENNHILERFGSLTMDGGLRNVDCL
Outline: (§1)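 Kinase activity measured with the ADP-Glo luminescent ADP-detection kit per manufacturer's protocol, using IKKε or TBK1 kinase enzyme systems. Reaction buffer: 40 mM Tris (pH 7.5), 20 mM MgCl2, 0.1 mg/mL BSA; luminescence read on a luminometer.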

IKKε = target: T2, IKKε (Homo sapiens, UniProt Q14164); assay: ADP-Glo Kinase Assay, inhibition activity on IKKε; format: biochemical
T2 construct: purchased Promega and/or Invitrogen V4158; PR8031B; V3991 (not assigned to the two kinases)
T2 sequence (Q14164 1-716): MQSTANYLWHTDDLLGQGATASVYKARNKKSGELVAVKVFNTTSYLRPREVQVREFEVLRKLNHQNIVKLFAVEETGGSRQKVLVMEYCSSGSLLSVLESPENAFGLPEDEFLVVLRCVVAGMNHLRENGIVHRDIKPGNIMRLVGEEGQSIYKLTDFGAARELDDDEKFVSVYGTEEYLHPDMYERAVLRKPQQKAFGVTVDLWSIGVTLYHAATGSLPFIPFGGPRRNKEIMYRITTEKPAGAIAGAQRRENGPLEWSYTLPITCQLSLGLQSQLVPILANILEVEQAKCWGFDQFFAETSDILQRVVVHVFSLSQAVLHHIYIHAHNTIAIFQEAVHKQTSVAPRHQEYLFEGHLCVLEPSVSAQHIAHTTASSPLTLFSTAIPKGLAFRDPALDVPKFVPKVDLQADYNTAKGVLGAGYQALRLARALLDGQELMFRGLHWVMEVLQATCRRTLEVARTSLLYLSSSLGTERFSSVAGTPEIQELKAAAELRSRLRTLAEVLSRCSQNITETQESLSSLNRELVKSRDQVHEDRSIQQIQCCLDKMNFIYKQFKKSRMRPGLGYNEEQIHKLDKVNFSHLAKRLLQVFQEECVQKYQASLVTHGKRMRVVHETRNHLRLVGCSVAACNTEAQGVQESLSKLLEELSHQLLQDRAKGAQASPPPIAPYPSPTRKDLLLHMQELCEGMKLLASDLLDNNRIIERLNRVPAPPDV
Outline: as §1

Row | IC50 (TBK1) [nM] | IC50 (IKKε) [nM] | SMILES
1 | 5.9 | 8 | CC(C)NC(=O)N1CCC(c2c[nH]c3ncc(-c4ccc(CN5CCOCC5)s4)cc23)=CC1(C)C [Example 114, N-isopropyl-2,2-dimethyl-4-(5-(5-(morpholinomethyl)thiophen-2-yl)-1H-pyrrolo[2,3-b]pyridin-3-yl)-5,6-dihydropyridine-1(2H)-carboxamide]
2 | 3.6 | 27 | CC(C)NC(=O)N1CC=C(c2c[nH]c3ncc(-c4ccc(CN5CCN(C)CC5)s4)cc23)C(C)C1 (stereo not drawn) [Example 125, N-isopropyl-5-methyl-4-(5-(5-((4-methylpiperazin-1-yl)methyl)thiophen-2-yl)-1H-pyrrolo[2,3-b]pyridin-3-yl)-5,6-dihydropyridine-1(2H)-carboxamide]
3 | 33 | 120 | NS(=O)(=O)c1cccc(-c2cnc3[nH]cc(C4=CCN(C(=O)OC5CCCC5)CC4)c3c2)c1 [Example 145, Cyclopentyl 4-(5-(3-sulfamoylphenyl)-1H-pyrrolo[2,3-b]pyridin-3-yl)-5,6-dihydropyridine-1(2H)-carboxylate]
4 | 54 | 250 | CC(C)OC(=O)N1CC=C(c2c[nH]c3ncc(-c4ccc(S(C)(=O)=O)cc4)cc23)CC1 [Example 148, Isopropyl 4-(5-(4-(methylsulfonyl)phenyl)-1H-pyrrolo[2,3-b]pyridin-3-yl)-5,6-dihydropyridine-1(2H)-carboxylate]
5 | 32 | 280 | Cc1nnc(-c2cnc3[nH]cc(C4=CCN(C(=O)OC(C)(C)C)CC4)c3c2)s1 [Example 170, tert-Butyl 4-(5-(5-methyl-1,3,4-thiadiazol-2-yl)-1H-pyrrolo[2,3-b]pyridin-3-yl)-5,6-dihydropyridine-1(2H)-carboxylate]
6 | 340 | 500 | CN(C)S(=O)(=O)c1ccc(-c2cnc3[nH]cc(C4=CCN(C(=O)OC5CCCC5)CC4)c3c2)cc1 [Example 179, Cyclopentyl 4-(5-(4-(N,N-dimethylsulfamoyl)phenyl)-1H-pyrrolo[2,3-b]pyridin-3-yl)-5,6-dihydropyridine-1(2H)-carboxylate]
7 | 57 | 280 | O=C(c1cccs1)N1CC=C(c2c[nH]c3ncc(-c4ccc5[nH]ncc5c4)cc23)CC1 [Example 204, (4-(5-(1H-indazol-5-yl)-1H-pyrrolo[2,3-b]pyridin-3-yl)-5,6-dihydropyridin-1(2H)-yl)(thiophen-2-yl)methanone]
8 | 3.3 | 23 | CN1CCN(Cc2ccc(-c3cnc4[nH]cc(C5=CCN(C(=O)c6cccs6)CC5)c4c3)s2)CC1 [Example 205, (4-(5-(5-((4-methylpiperazin-1-yl)methyl)thiophen-2-yl)-1H-pyrrolo[2,3-b]pyridin-3-yl)-5,6-dihydropyridin-1(2H)-yl)(thiophen-2-yl)methanone]
9 | 7 | 140 | O=C(c1ccc(-c2cnc3[nH]cc(C4=CCN(C(=O)c5cccs5)CC4)c3c2)cc1)N1CCOCC1 [Example 209, (4-(5-(4-(morpholine-4-carbonyl)phenyl)-1H-pyrrolo[2,3-b]pyridin-3-yl)-5,6-dihydropyridin-1(2H)-yl)(thiophen-2-yl)methanone]

Continued, compound first:

Row | SMILES | IC50 (TBK1) [nM] | IC50 (IKKε) [nM]
10 | CC(C)NC(=O)N1C(C)C=C(c2c[nH]c3ncc(-c4ccc(CN5CCOCC5)s4)cc23)CC1C (stereo not drawn) [Example 115, N-isopropyl-2,6-dimethyl-4-(5-(5-(morpholinomethyl)thiophen-2-yl)-1H-pyrrolo[2,3-b]pyridin-3-yl)-3,6-dihydropyridine-1(2H)-carboxamide] | 360 | 430
11 | CC1C=C(c2c[nH]c3ncc(-c4ccc(CN5CCOCC5)s4)cc23)CC(C)N1C(=O)NC1CCCC1 (stereo not drawn) [Example 116, N-cyclopentyl-2,6-dimethyl-4-(5-(5-(morpholinomethyl)thiophen-2-yl)-1H-pyrrolo[2,3-b]pyridin-3-yl)-3,6-dihydropyridine-1(2H)-carboxamide] | 1280 | 1520
12 | CC(C)NC(=O)N1C2C=C(c3c[nH]c4ncc(-c5ccc(CN6CCOCC6)s5)cc34)CC1CC2 (stereo not drawn) [Example 117, N-isopropyl-3-(5-(5-(morpholinomethyl)thiophen-2-yl)-1H-pyrrolo[2,3-b]pyridin-3-yl)-8-azabicyclo[3.2.1]oct-3-ene-8-carboxamide] | 2700 | 4790
13 | CC(C)NC(=O)N1C2C=C(c3c[nH]c4ncc(-c5ccc(CN6CCOCC6)s5)cc34)CC1CCC2 (stereo not drawn) [Example 118, N-isopropyl-3-(5-(5-(morpholinomethyl)thiophen-2-yl)-1H-pyrrolo[2,3-b]pyridin-3-yl)-9-azabicyclo[3.3.1]non-3-ene-9-carboxamide] | 340 | 610
14 | COc1ccc(-c2cnc3[nH]cc(C4=CC(c5ccccc5)N(C(=O)NC(C)C)CC4)c3c2)cc1OC (stereo not drawn) [Example 119, 4-(5-(3,4-Dimethoxyphenyl)-1H-pyrrolo[2,3-b]pyridin-3-yl)-N-isopropyl-2-phenyl-5,6-dihydropyridine-1(2H)-carboxamide] | 5410 | 3470
15 | CC1CN(C(=O)NC2CCCC2)CC=C1c1c[nH]c2ncc(-c3ccc(S(C)(=O)=O)cc3)cc12 (stereo not drawn) [Example 121, N-cyclopentyl-5-methyl-4-(5-(4-(methylsulfonyl)phenyl)-1H-pyrrolo[2,3-b]pyridin-3-yl)-5,6-dihydropyridine-1(2H)-carboxamide] | 97 | 330
16 | CC1CN(C(=O)NC2CCCC2)CC=C1c1c[nH]c2ncc(-c3cccc(S(C)(=O)=O)c3)cc12 (stereo not drawn) [Example 122, N-cyclopentyl-5-methyl-4-(5-(3-(methylsulfonyl)phenyl)-1H-pyrrolo[2,3-b]pyridin-3-yl)-5,6-dihydropyridine-1(2H)-carboxamide] | 36 | 97
17 | CC1CN(C(=O)NC2CCCC2)CC=C1c1c[nH]c2ncc(-c3cccc(S(N)(=O)=O)c3)cc12 (stereo not drawn) [Example 123, N-cyclopentyl-5-methyl-4-(5-(3-sulfamoylphenyl)-1H-pyrrolo[2,3-b]pyridin-3-yl)-5,6-dihydropyridine-1(2H)-carboxamide] | 28 | 80
18 | CC1CN(C(=O)NC2CCCC2)CC=C1c1c[nH]c2ncc(-c3ccc(CN4CCN(C)CC4)s3)cc12 (stereo not drawn) [Example 126, N-cyclopentyl-5-methyl-4-(5-(5-((4-methylpiperazin-1-yl)methyl)thiophen-2-yl)-1H-pyrrolo[2,3-b]pyridin-3-yl)-5,6-dihydropyridine-1(2H)-carboxamide] | 15 | 33
19 | CC1CN(C(=O)NC2CCCC2)CC=C1c1c[nH]c2ncc(-c3ccc(CN4CCOCC4)s3)cc12 (stereo not drawn) [Example 127, N-cyclopentyl-5-methyl-4-(5-(5-(morpholinomethyl)thiophen-2-yl)-1H-pyrrolo[2,3-b]pyridin-3-yl)-5,6-dihydropyridine-1(2H)-carboxamide] | 4 | 100
20 | O=C(c1cccs1)N1CC=C(c2c[nH]c3ncc(-c4ccc(S(=O)(=O)N5CCOCC5)cc4)cc23)CC1 [Example 190, (4-(5-(4-(Morpholinosulfonyl)phenyl)-1H-pyrrolo[2,3-b]pyridin-3-yl)-5,6-dihydropyridin-1(2H)-yl)(thiophen-2-yl)methanone] | 140 | 390
21 | CS(=O)(=O)c1cccc(-c2cnc3[nH]cc(C4=CCN(C(=O)NC5CCCC5)CC4)c3n2)c1 [Example 228, N-cyclopentyl-4-(2-(3-(methylsulfonyl)phenyl)-5H-pyrrolo[2,3-b]pyrazin-7-yl)-5,6-dihydropyridine-1(2H)-carboxamide] | 90 | 400
